# Measurements reported in patent publication US20220081412A1, “QUINOLINYL-PYRAZINE-CARBOXAMIDE COMPOUNDS AND USES THEREOF” (The Regents of the University of Michigan, priority 2018, published 2022).
# Tested on: NCI60 cell lines
# Experiment: NCI60 cell line panel
# Assay type: cell-based, human
# Procedure: The Developmental Therapeutics Program (DTP) of NCI has evaluated more than 100,000 pure compounds and more than 34,000 crude extracts against the panel of human tumor cell lines. The resultant data are analyzed using a program called COMPARE, that rank the entire database of tested compounds in the order of the similarity of the responses. […] Thus, the NCI60 databases is highly useful to the cancer research community. Further experiments were conducted that tested some of the active compounds in a panel of NCI60 cell line to relate our compounds with some known inhibitors to have an idea of possible mechanism of action.
# In order to understand the selectivity of these compounds in different cancer types, some of them were tested against a panel of 60 cell lines (Table XXXIX).
structure (smiles),measurement,setting,value
"CCN(CC)CCCC(C)Nc1cnc(C(=O)Nc2cc(C)cc3cccnc23)cn1 (centres unmarked) [J4, 5-((5-(diethylamino)pentan-2-yl)amino)-N-(6-methylquinolin-8-yl)pyrazine-2-carboxamide]",GIPRCNT: % Growth inhibition,"Breast Cancer, BT-549",93.26%
same,GIPRCNT: % Growth inhibition,"Breast Cancer, HS 578T",79.89%
same,GIPRCNT: % Growth inhibition,"Breast Cancer, MCF7",57.27%
same,GIPRCNT: % Growth inhibition,"Breast Cancer, MDA-MB-231/ATCC",89.17%
same,GIPRCNT: % Growth inhibition,"Breast Cancer, MDA-MB-468",9.358%
same,GIPRCNT: % Growth inhibition,"Breast Cancer, T-47D",32.641%
same,GIPRCNT: % Growth inhibition,"CNS Cancer, SF-268",66.12%
same,GIPRCNT: % Growth inhibition,"CNS Cancer, SF-295",98.94%
same,GIPRCNT: % Growth inhibition,"CNS Cancer, SF-539",86.87%
same,GIPRCNT: % Growth inhibition,"CNS Cancer, SNB-19",89.24%
same,GIPRCNT: % Growth inhibition,"CNS Cancer, SNB-75",78.26%
same,GIPRCNT: % Growth inhibition,"CNS Cancer, U251",78.39%
same,GIPRCNT: % Growth inhibition,"Colon Cancer, COLO 205",37.0068%
same,GIPRCNT: % Growth inhibition,"Colon Cancer, HCC-2998",89.8%
same,GIPRCNT: % Growth inhibition,"Colon Cancer, HCT-15",59.89%
same,GIPRCNT: % Growth inhibition,"Colon Cancer, HCT-116",18.05%
same,GIPRCNT: % Growth inhibition,"Colon Cancer, HT29",37.31%
same,GIPRCNT: % Growth inhibition,"Colon Cancer, KM12",97.9%
same,GIPRCNT: % Growth inhibition,"Colon Cancer, SW-620",75.26%
same,GIPRCNT: % Growth inhibition,"Leukemia, CCRF-CEM",54.24%
same,GIPRCNT: % Growth inhibition,"Leukemia, HL-60(TB)",76.8%
same,GIPRCNT: % Growth inhibition,"Leukemia, K-562",25.88%
same,GIPRCNT: % Growth inhibition,"Leukemia, MOLT-4",46.46%
same,GIPRCNT: % Growth inhibition,"Leukemia, RPMI-8226",77.97%
same,GIPRCNT: % Growth inhibition,"Leukemia, SR",81.88%
same,GIPRCNT: % Growth inhibition,"Melanoma, LOX IMVI",87%
same,GIPRCNT: % Growth inhibition,"Melanoma, M14",98.61%
same,GIPRCNT: % Growth inhibition,"Melanoma, MALME-3M",107.0521%
same,GIPRCNT: % Growth inhibition,"Melanoma, MDA-MB-435",83.68%
same,GIPRCNT: % Growth inhibition,"Melanoma, SK-MEL-2",104.3875%
same,GIPRCNT: % Growth inhibition,"Melanoma, SK-MEL-5",83.12%
same,GIPRCNT: % Growth inhibition,"Melanoma, UACC-62",98.62%
same,GIPRCNT: % Growth inhibition,"Melanoma, UACC-257",71.75%
same,GIPRCNT: % Growth inhibition,"Non-Small Cell Lung Cancer, A549/ATCC",72.8%
same,GIPRCNT: % Growth inhibition,"Non-Small Cell Lung Cancer, EKVX",77.77%
same,GIPRCNT: % Growth inhibition,"Non-Small Cell Lung Cancer, HOP-62",91.15%
same,GIPRCNT: % Growth inhibition,"Non-Small Cell Lung Cancer, HOP-92",51.4%
same,GIPRCNT: % Growth inhibition,"Non-Small Cell Lung Cancer, NCI-H23",96.3%
same,GIPRCNT: % Growth inhibition,"Non-Small Cell Lung Cancer, NCI-H226",60.39%
same,GIPRCNT: % Growth inhibition,"Non-Small Cell Lung Cancer, NCI-H322M",84.18%
same,GIPRCNT: % Growth inhibition,"Non-Small Cell Lung Cancer, NCI-H460",79.5%
same,GIPRCNT: % Growth inhibition,"Non-Small Cell Lung Cancer, NCI-H522",96.8365%
same,GIPRCNT: % Growth inhibition,"Ovarian Cancer, IGROV1",68.68%
same,GIPRCNT: % Growth inhibition,"Ovarian Cancer, NCI/ADR-RES",92.67%
same,GIPRCNT: % Growth inhibition,"Ovarian Cancer, OVCAR-3",20.46%
same,GIPRCNT: % Growth inhibition,"Ovarian Cancer, OVCAR-4",58.85%
same,GIPRCNT: % Growth inhibition,"Ovarian Cancer, OVCAR-5",97.58%
same,GIPRCNT: % Growth inhibition,"Ovarian Cancer, OVCAR-8",86.9118%
same,GIPRCNT: % Growth inhibition,"Ovarian Cancer, SK-OV-3",103.7568%
same,GIPRCNT: % Growth inhibition,"Prostate Cancer, DU-145",80.68%
same,GIPRCNT: % Growth inhibition,"Prostate Cancer, PC-3",83.08%
same,GIPRCNT: % Growth inhibition,"Renal Cancer, 786-0",88.22%
same,GIPRCNT: % Growth inhibition,"Renal Cancer, A498",70.33%
same,GIPRCNT: % Growth inhibition,"Renal Cancer, ACHN",77.87%
same,GIPRCNT: % Growth inhibition,"Renal Cancer, CAKI-1",93.45%
same,GIPRCNT: % Growth inhibition,"Renal Cancer, RXF 393",72.29%
same,GIPRCNT: % Growth inhibition,"Renal Cancer, SN12C",77.92%
same,GIPRCNT: % Growth inhibition,"Renal Cancer, TK-10",86.86%
same,GIPRCNT: % Growth inhibition,"Renal Cancer, UO-31",63.33%
